Source: EPA's ToxValDB 9.5 (doi:10.2903/j.efsa.2017.4852)

What was measured:
Bibionidae = settings: chronic/long-term; duration: 28 days
Tagia sp. = settings: chronic/long-term; reproduction
Mus musculus = settings: acute; oral; mortality
Oryctolagus sp. = settings: developmental; development
Apis mellifera = settings: acute, mortality
Anas platyrhynchos = settings: acute; oral; unspecified; mortality
Folsomia candida = settings: chronic/long-term; reproduction
Chrysoperla externa = test: LR50; higher = less toxic; settings: not reported; mortality

## CC#Cc1cc(C)nc(Nc2ccccc2)n1 [Mepanipyrim]
Bibionidae
  NOEC: 4.67 mg/kg
Colinus virginianus; acute, oral, mortality
  LD50: > 2250 mg/kg-day
Colinus virginianus; reproduction developmental, reproduction
  NOEC: 100 mg/kg-day
Tagia sp.
  NOEC: 113 mg/kg
Mus musculus
  LD50: > 2650 mg/kg-day
Oryctolagus sp.
  NOAEL: 10 mg/kg-day
Apis mellifera; dermal
  LD50: > 80 µg/piece
Apis mellifera; oral, unspecified
  LD50: > 50 µg/piece
Anas platyrhynchos
  LD50: > 2250 mg/kg-day
Folsomia candida
  NOEC: 58.4 mg/kg
Rattus norvegicus; acute, oral, mortality
  LD50: > 2650 mg/kg-day
Rattus norvegicus; chronic, morphology
  LOAEL: 2.45 mg/kg-day
Rattus norvegicus; reproduction developmental, histopathology: nonneoplastic
  LOAEL: 2.45 mg/kg-day
Chrysoperla externa
  LR50: > 500 g/ha
